Results as given in US20240315992A1, “AMINOXY ACID-BASED ANTIBACTERIAL COMPOUNDS AND METHODS THEREOF” (The University of Hong Kong, priority 2023, published 2024).
Converted amounts (≈) assume the structure as drawn. Like-named read-outs stand apart in the source and are kept apart here.

Key:
[1] = tested on: Staphylococcus aureus ATCC 29213; assay: Scanning and transmission electron microscopy; type: cell-based; conditions: 24 hours treatment, SEM and TEM
Description: FIGS. 16A-16B are the images showing the compound 8 and compound 35 can induced the cell burst of Staphylococcus aureus. (FIG. 16A) Cells are imaged under scanning electron microscope. (FIG. 16B) Cells are imaged under transmission electron microscope.
Briefly, an overnight culture of Staphylococcus aureus ATCC 29213 was sub-cultured 1:100 in fresh CAMH and regrown for 2 hours. Then the bacteria were treated with compound or DMSO negative control for 24 hours. The bacterial pellet was resuspended in PBS and loaded on 0.22 μm filter membrane. The bacteria were fixed on the membrane by 2.5% glutaraldehyde for overnight at 4° C. The filter membranes were washed by PBS and subsequently dehydrated using ethanol as shown below.
The samples were submitted to HKU Electron Microscope Unit (EMU) for critical point drying, mounting and coating of the specimens. Samples were then observed using LEO 1530 FEG Scanning Electron Microscope.
Briefly, an overnight culture of Staphylococcus aureus ATCC 29213 was sub-cultured 1:100 in fresh CAMH and regrown for 2 hours. Then the bacteria were treated with compound or negative control DMSO for 24 hours. The bacterial pellet was then washed by PBS and fixed in cacodylate buffer (0.1 M sodium cacodylate-HCl buffer pH 7.4) for 1 hour at 4° C. […]

MRSA-USA300LAC = assay: MIC by CLSI broth micro-dilution, MRSA-USA300LAC; type: cell-based; conditions: Staphylococcus aureus, read-out: Minimum inhibitory concentration
Description: (§1) Aminoxy acids were synthesized by the standard peptide coupling procedures. Minimum inhibitory concentration was determined using CLSI broth micro-dilution method in 96-wells microtitre plates. Minimum inhibitory concentration is defined as the lowest concentration of the compound that inhibits visible growth of the bacteria. All experiments were performed three times. 24 compounds including aminoxy acid monomers and dipeptides have been identified to show toxicity against multidrug resistant Staphylococcus aureus Mu3 and summarized in Table 1. The minimum inhibitory concentration of compound 8 and compound 35 on other gram-positive bacteria was also evaluated and summarized in Table 2. […] As shown in FIGS. 3A-3B there are no observable hemolysis for compound 8 and compound 35 towards human red blood cell.
(§2) Bacteria were streaked from the glycerol stock into BHI agar and were incubated overnight. Single colony was picked for the overnight culture in cation-adjusted Mueller Hinton broth (CAMH), LB or BHI. The overnight culture was sub-cultured and regrew to exponential phase for the experiment.
(§3) MIC was determined by CLSI broth micro-dilution method in 96-wells microtitre plates. […] Optical density was recorded by DTX 880 multimode detector (Beckman Coulter, California, US). […]

M. smegmatis mc^2155 = assay: MIC by CLSI broth micro-dilution, M. smegmatis; type: cell-based, Mycobacterium smegmatis; conditions: Mycolicibacterium smegmatis; M. smegmatis mc^2155, BHI medium; read-out: Minimum inhibitory concentration
Description: as §1, §2, §3

MDCK = assay: Mammalian cell cytotoxicity assay (MTT), MDCK; type: cell-based; conditions: at 16 folded MIC (50 μM compound 8, 12.5 μM compound 35)
Description: FIGS. 2A-2B are the bar graphs showing the cytotoxicity of compound 8 (FIG. 2A) and compound 35 (FIG. 2B) towards mammalian cell NIH3T3, MDCK and MIHA. % survival is mean±S.D normalized to DMSO as the negative control of a representative experiment. Biological triplicates were conducted.
In the treated culture dish, cells were washed by PBS and then trypsinized. DMEM was added to quench the reaction. Cells were centrifuged and resuspended into fresh DMEM. Cells were then seeded in 96-well microtitre plate (100 μL, 5000 cells per well) for 24 hours before addition of compounds. The compounds were two-fold serial diluted by DMSO in a DMSO-compatible 96-well plate. 1 μL of compound in DMSO is transferred into the 96-well microtitre preparation plate containing 100 μL DMEM medium. The medium in culture plate was removed and compounds in preparation plate were transferred to culture plate. Equal volume of DMSO was used as negative control.
After 24 hours of incubation of cells, cell viability was measured by MTT assay. In MTT assay, 20 μL 5 mg/mL MTT solution in PBS was added to cell medium and cultured for 3 hours. The medium was then removed and 50 μL DMSO was added and cultured for 10 minutes. Absorbance at 595 nm was measured spectrophotometrically (Beckman Coulter DTX 880 Multimode Detector) and normalized to DMSO group. Biological replicates were performed.

[2] = tested on: E. faecalis clinical strain; assay: MIC by CLSI broth micro-dilution, E. faecalis; type: cell-based; conditions: Enterococcus faecalis, BHI medium, read-out: Minimum inhibitory concentration
Description: as §1, §2, §3

[3] = tested on: multidrug resistant Staphylococcus aureus Mu3; assay: MIC by CLSI broth micro-dilution, MRSA Mu3; type: cell-based
Description: as §1, §2
MIC was determined by CLSI broth micro-dilution method in 96-wells microtitre plates. For compounds dissolved in water, 100 μL of 2× testing concentration was added to the first well of each column, followed by two-fold serial dilution for successive wells with 50 μL medium. For chemical compounds dissolved in DMSO, the compounds were two-fold serial diluted by DMSO in a DMSO-compatible 96-well plate. 1 μL of compound in DMSO was transferred into 96-wells microtitre plate containing 50 μL medium to give 2× testing concentration. An overnight culture of bacteria was grown into exponential phase. The bacteria culture was diluted to 1×10^6 CFU/mL and 50 μL of diluted culture were added into each well. The test plates were kept in a 37° C. incubator overnight. Optical density was recorded by DTX 880 multimode detector (Beckman Coulter, California, US). MIC is defined as the lowest concentration of the compound that inhibits visible growth of bacteria. Biological replicates were performed. CAMH was used for bacteria culture and MIC test except S. pneumoniae, L. monocytogenes, E. faecalis and M. smegmatis for which BHI was used as culture medium

MRSA-USA300 = assay: MIC by CLSI broth micro-dilution, MRSA-USA300; type: cell-based; conditions: Staphylococcus aureus, read-out: Minimum inhibitory concentration
Description: as §1, §2, §3

[4] = MRSA Mu3 (Table 2), read-out: Minimum inhibitory concentration
[5] = MRSA, CLSI broth micro-dilution, CAMH, read-out: Minimum inhibitory concentration (μM) in MRSA Mu3

Compound	cell morphology under electron microscope [1]	MIC (MRSA-USA300LAC)	MIC (M. smegmatis mc^2155)	toxicity against mammalian cell MDCK (MDCK)	MIC [2]	MIC [3, 4]	MIC [3, 5]	MIC (MRSA-USA300)
CC(C)C[C@H](ONC(=O)[C@@H](COCc1ccccc1)ONC(=O)c1cc(C(F)(F)F)cc(C(F)(F)F)c1)C(=O)Nc1ccccc1 [Compound 8]	severe cell abnormality including cell burst and irregular shape of cell wall	3.13 µM (≈ 2.05 µg/mL)	12.5 µM (≈ 8.19 µg/mL)	minimal toxicity	3.13 µM (≈ 2.05 µg/mL)	3.13 µM (≈ 2.05 µg/mL)	3.13 µM (≈ 2.05 µg/mL)	3.13 µM (≈ 2.05 µg/mL)
CC(C)C[C@H](ONC(=O)[C@@H](COCc1ccccc1)ONC(=O)c1cc(C(F)(F)F)cc(C(F)(F)F)c1)C(=O)Nc1ccc2c(c1)OC(F)(F)O2 [Compound 35]	severe cell abnormality including cell burst and irregular shape of cell wall	1.56 µM (≈ 1.15 µg/mL)	1.56 µM (≈ 1.15 µg/mL)	minimal toxicity	6.25 µM (≈ 4.6 µg/mL)	0.78 µM (≈ 0.574 µg/mL)	0.781 µM (≈ 0.574 µg/mL)	3.13 µM (≈ 2.3 µg/mL)
